Laboratory results as given in patent EP2522350A1, “Use of the active ingredient combination of a 1-diethylaminoethyl-3-chinoxalin-2-on derivative and an oxysterol for breaking resistance in the treatment of cancer and strengthening the immune system against cancer, bacterial and viral diseases, autoimmune diseases, increased stress and …” (Immunopharm AG, priority 2011, dated 2012).

Experiment: ORAC value (Oxygen Radical Absorbing Capacity)
Details: ratio to other antioxidants; no test described

CCN(CC)CCn1c(=O)c(Cc2ccc(OC)cc2)nc2ccccc21 [Caroverin, 1-(2-Diethylaminoethyl)-3-(p-methoxy-benzyl)-1,2-dihydrochinoxalin-2-on]
ORAC-Wert, höher gegenüber allen anderen bekannten Antioxidantien wie Vitamin C, E oder Glutathion: ≤ 1000 fach
